Laboratory results: ChEMBL document CHEMBL1201861, “Genomics of Drug Sensitity in Cancer screening data, Wellcome Trust Sanger Institute”

Columns and labels:
Format in all cases: functional, cell-based
[1] = tested on: DG-75; experiment: cells; conditions: Homo sapiens;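 note: growth inhibition of DG-75 cells, read out with a cell viability assay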
Description: SANGER: Inhibition of human DG-75 cell growth in a cell viability assay.

[2] = tested on: DoTc2-4510; experiment: cells; conditions: Homo sapiens
[3] = tested on: EFO-21; experiment: cells; conditions: Homo sapiens;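 note: growth inhibition of EFO-21 cells measured with a viability assay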
Description: SANGER: Inhibition of human EFO-21 cell growth in a cell viability assay.

[4] = tested on: EFO-27; experiment: cells; conditions: Homo sapiens;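 note: growth inhibition of EFO-27 cells, read out with a cell viability assay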
Description: SANGER: Inhibition of human EFO-27 cell growth in a cell viability assay.

[5] = tested on: G-361; experiment: cells; conditions: Homo sapiens
[6] = tested on: HCC70; experiment: cells; conditions: Homo sapiens;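 note: cell viability assay measuring how strongly the compound suppresses proliferation of HCC70 cells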
Description: SANGER: Inhibition of human HCC70 cell growth in a cell viability assay.

[7] = tested on: HCT-15; experiment: cells; conditions: Homo sapiens;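 note: cell viability readout, IC50 reflecting suppression of HCT-15 cell growth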
Description: SANGER: Inhibition of human HCT-15 cell growth in a cell viability assay.

[8] = tested on: HLE; experiment: cells; conditions: Homo sapiens;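 note: growth inhibition of human HLE cells, read out by a cell viability assay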
Description: SANGER: Inhibition of human HLE cell growth in a cell viability assay.

[9] = tested on: HMV-2 cell line; experiment: cells; conditions: Homo sapiens;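 note: growth inhibition of HMV-II cells, read out with a cell viability assay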
Description: SANGER: Inhibition of human HMV-II cell growth in a cell viability assay.

[10] = tested on: HSC-4; experiment: cells; conditions: Homo sapiens;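 note: growth inhibition of human HSC-4 cells, read out with a cell viability assay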
Description: SANGER: Inhibition of human HSC-4 cell growth in a cell viability assay.

[11] = tested on: HuO-3N1; experiment: cells; conditions: Homo sapiens;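 note: cell viability readout used to measure how strongly compounds suppress proliferation of human HuO-3N1 cells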
Description: SANGER: Inhibition of human HuO-3N1 cell growth in a cell viability assay.

[12] = tested on: KYSE-150 cell line; experiment: cells; conditions: Homo sapiens;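 note: growth inhibition of human KYSE-150 cells, read out with a cell viability assay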
Description: SANGER: Inhibition of human KYSE-150 cell growth in a cell viability assay.

[13] = tested on: KYSE-270; experiment: cells; conditions: Homo sapiens;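 note: cell growth inhibition measured with a viability assay in the human KYSE-270 line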
Description: SANGER: Inhibition of human KYSE-270 cell growth in a cell viability assay.

[14] = tested on: KYSE-510; experiment: cells; conditions: Homo sapiens;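 note: cell viability readout used to measure how strongly growth of the cell line is suppressed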
Description: SANGER: Inhibition of human KYSE-510 cell growth in a cell viability assay.

[15] = tested on: LC-1F; experiment: cells; conditions: Homo sapiens;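 note: growth inhibition of human LC-1F cells, read out with a cell viability assay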
Description: SANGER: Inhibition of human LC-1F cell growth in a cell viability assay.

[16] = tested on: LOUCY; experiment: cells; conditions: Homo sapiens;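 note: growth inhibition of human LOUCY cells, read out with a cell viability assay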
Description: SANGER: Inhibition of human LOUCY cell growth in a cell viability assay.

[17] = tested on: MDA-MB-453; experiment: cells; conditions: Homo sapiens
Description: SANGER: Inhibition of human MDA-MB-453 cell growth in a cell viability assay.

[18] = tested on: MFE-280; experiment: cells; conditions: Homo sapiens;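 note: growth inhibition of MFE-280 cells, determined with a cell viability readout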
Description: SANGER: Inhibition of human MFE-280 cell growth in a cell viability assay.

[19] = tested on: MG-63; experiment: cells; conditions: Homo sapiens;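 note: growth inhibition of human MG-63 cells, read out with a cell viability assay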
Description: SANGER: Inhibition of human MG-63 cell growth in a cell viability assay.

[20] = tested on: MHH-CALL-2; experiment: cells; conditions: Homo sapiens;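 note: growth inhibition of the cell line, read out in a cell viability assay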
Description: SANGER: Inhibition of human MHH-CALL-2 cell growth in a cell viability assay.

[21] = tested on: NCCIT; experiment: SANGER: Inhibition of human NCCIT cell growth in a cell viability assay.
[22] = tested on: NCI-H1623; experiment: cells; conditions: Homo sapiens;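 note: cell viability assay used as the read-out for growth inhibition of NCI-H1623 cells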
Description: SANGER: Inhibition of human NCI-H1623 cell growth in a cell viability assay.

[23] = tested on: NCI-H1651; experiment: cells; conditions: Homo sapiens;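 note: Read-out is a cell viability assay, with IC50 expressing inhibition of NCI-H1651 cell growth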
Description: SANGER: Inhibition of human NCI-H1651 cell growth in a cell viability assay.

[24] = tested on: NCI-H1693; experiment: cells; conditions: Homo sapiens;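 note: growth inhibition of the human cell line, read out with a cell viability assay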
Description: SANGER: Inhibition of human NCI-H1693 cell growth in a cell viability assay.

[25] = tested on: NCI-H1703; experiment: cells; conditions: Homo sapiens;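 note: growth inhibition of NCI-H1703 cells, read out via a cell viability assay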
Description: SANGER: Inhibition of human NCI-H1703 cell growth in a cell viability assay.

[26] = tested on: NCI-H2052; experiment: cells; conditions: Homo sapiens;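 note: growth inhibition of NCI-H2052 cells, read out with a cell viability assay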
Description: SANGER: Inhibition of human NCI-H2052 cell growth in a cell viability assay.

[27] = tested on: NCI-H2122; experiment: cells; conditions: Homo sapiens;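 note: growth inhibition of the cells, read out with a cell viability assay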
Description: SANGER: Inhibition of human NCI-H2122 cell growth in a cell viability assay.

[28] = tested on: NCI-H2170; experiment: cells; conditions: Homo sapiens;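 note: cell viability assay measuring growth inhibition of human NCI-H2170 cancer cells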
Description: SANGER: Inhibition of human NCI-H2170 cell growth in a cell viability assay.

[29] = tested on: NCI-H2452; experiment: cells; conditions: Homo sapiens;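 note: growth inhibition of NCI-H2452 cells, read out with a cell viability assay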
Description: SANGER: Inhibition of human NCI-H2452 cell growth in a cell viability assay.

[30] = tested on: NCI-H292; experiment: cells; conditions: Homo sapiens;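 note: growth inhibition of NCI-H292 cells, read out with a cell viability assay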
Description: SANGER: Inhibition of human NCI-H292 cell growth in a cell viability assay.

[31] = tested on: SNU-16; experiment: cells; conditions: Homo sapiens;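 note: growth inhibition of human SNU-16 cells, determined with a cell viability readout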
Description: SANGER: Inhibition of human NCI-SNU-16 cell growth in a cell viability assay.

[32] = tested on: NUGC-3; experiment: cells; conditions: Homo sapiens;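 note: growth inhibition of human NUGC-3 cells, read out with a cell viability assay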
Description: SANGER: Inhibition of human NUGC-3 cell growth in a cell viability assay.

[33] = tested on: OAW-28; experiment: cells; conditions: Homo sapiens;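 note: growth inhibition of OAW-28 cells, read out with a cell viability assay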
Description: SANGER: Inhibition of human OAW-28 cell growth in a cell viability assay.

[34] = tested on: PFSK-1; experiment: cells; conditions: Homo sapiens;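 note: cell viability assay measuring how strongly compounds suppress growth of human PFSK-1 cells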
Description: SANGER: Inhibition of human PFSK-1 cell growth in a cell viability assay.

[35] = tested on: RCM-1; experiment: cells; conditions: Homo sapiens;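 note: growth inhibition of the RCM-1 line, determined with a cell viability readout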
Description: SANGER: Inhibition of human RCM-1 cell growth in a cell viability assay.

[36] = tested on: REH; experiment: cells; conditions: Homo sapiens;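 note: growth inhibition of REH cells determined with a cell viability read-out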
Description: SANGER: Inhibition of human REH cell growth in a cell viability assay.

[37] = tested on: RPMI 8402; experiment: SANGER: Inhibition of human RPMI-8402 cell growth in a cell viability assay.
[38] = tested on: Raji; experiment: cells; conditions: Homo sapiens;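 note: cell viability assay measuring inhibition of Raji cell growth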
Description: SANGER: Inhibition of human Raji cell growth in a cell viability assay.

[39] = tested on: SCC-3; experiment: cells; conditions: Homo sapiens;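 note: cell viability assay measuring inhibition of SCC-3 cell growth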
Description: SANGER: Inhibition of human SCC-3 cell growth in a cell viability assay.

[40] = tested on: SCC-9; experiment: cells; conditions: Homo sapiens;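 note: Read-out is a cell viability assay, with values giving inhibition of cell growth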
Description: SANGER: Inhibition of human SCC-9 cell growth in a cell viability assay.

[41] = tested on: SF-295; experiment: cells; conditions: Homo sapiens;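 note: growth inhibition of SF-295 cells, read out with a cell viability assay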
Description: SANGER: Inhibition of human SF295 cell growth in a cell viability assay.

[42] = tested on: SKG-IIIa; experiment: cells; conditions: Homo sapiens;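 note: cell growth inhibition, read out with a cell viability assay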
Description: SANGER: Inhibition of human SKG-IIIa cell growth in a cell viability assay.

[43] = tested on: SNU-449; experiment: cells; conditions: Homo sapiens
Description: SANGER: Inhibition of human SNU-449 cell growth in a cell viability assay.

[44] = tested on: SW13; experiment: cells; conditions: Homo sapiens;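 note: IC50 is inhibition of SW13 cell growth, read out with a cell viability assay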
Description: SANGER: Inhibition of human SW13 cell growth in a cell viability assay.

[45] = tested on: SW48; experiment: cells; conditions: Homo sapiens;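 note: growth inhibition of SW48 cells, read out with a cell viability assay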
Description: SANGER: Inhibition of human SW48 cell growth in a cell viability assay.

[46] = tested on: SW756; experiment: cells; conditions: Homo sapiens;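 note: growth inhibition of human SW756 cells, read out with a cell viability assay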
Description: SANGER: Inhibition of human SW756 cell growth in a cell viability assay.

[47] = tested on: SW837; experiment: cells; conditions: Homo sapiens;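 note: growth inhibition of SW837 cells, determined with a cell viability assay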
Description: SANGER: Inhibition of human SW837 cell growth in a cell viability assay.

[48] = tested on: T98G; experiment: cells; conditions: Homo sapiens;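 note: growth inhibition of T98G cells, read out by a cell viability assay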
Description: SANGER: Inhibition of human T98G cell growth in a cell viability assay.

[49] = tested on: A253 cell line; experiment: cells; conditions: Homo sapiens;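 note: growth inhibition of A253 cells, read out with a cell viability assay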
Description: SANGER: Inhibition of human A253 cell growth in a cell viability assay.

[50] = tested on: A673; experiment: cells; conditions: Homo sapiens;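 note: growth inhibition of human A673 cells, read out through a cell viability assay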
Description: SANGER: Inhibition of human A673 cell growth in a cell viability assay.

[51] = tested on: BHT-101; experiment: cells; conditions: Homo sapiens
Description: SANGER: Inhibition of human BHT-101 cell growth in a cell viability assay.

[52] = tested on: BT-20; experiment: cells; conditions: Homo sapiens;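 note: cell viability assay measuring suppression of growth in human BT-20 cells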
Description: SANGER: Inhibition of human BT-20 cell growth in a cell viability assay.

[53] = tested on: BXPC-3; experiment: cells; conditions: Homo sapiens;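 note: growth inhibition of human BxPC-3 cells, read out by a cell viability assay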
Description: SANGER: Inhibition of human BxPC-3 cell growth in a cell viability assay.

[54] = tested on: CAL-120; experiment: cells; conditions: Homo sapiens;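 note: cell growth inhibition, read out as cell viability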
Description: SANGER: Inhibition of human CAL-120 cell growth in a cell viability assay.

[55] = tested on: CAL-39; experiment: cells; conditions: Homo sapiens;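 note: cell viability assay measuring growth inhibition of CAL-39 cells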
Description: SANGER: Inhibition of human CAL-39 cell growth in a cell viability assay.

[56] = tested on: CAL-72; experiment: cells; conditions: Homo sapiens;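 note: cell viability assay measuring inhibition of proliferation in the CAL-72 cell line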
Description: SANGER: Inhibition of human CAL-72 cell growth in a cell viability assay.

[57] = tested on: TE-15; experiment: cells; conditions: Homo sapiens
Description: SANGER: Inhibition of human TE-15 cell growth in a cell viability assay.

[58] = tested on: TUR; experiment: cells; conditions: Homo sapiens
Description: SANGER: Inhibition of human TUR cell growth in a cell viability assay.

[59] = tested on: U-118-MG; experiment: cells; conditions: Homo sapiens
Description: SANGER: Inhibition of human U-118-MG cell growth in a cell viability assay.

[60] = tested on: U-698-M; experiment: cells; conditions: Homo sapiens
Description: SANGER: Inhibition of human U-698-M cell growth in a cell viability assay.

[61] = tested on: WM-115; experiment: cells; conditions: Homo sapiens
Description: SANGER: Inhibition of human WM-115 cell growth in a cell viability assay.

[62] = tested on: CAPAN-1; experiment: cells; conditions: Homo sapiens
Description: SANGER: Inhibition of human CAPAN-1 cell growth in a cell viability assay.

[63] = tested on: D-247MG; experiment: cells; conditions: Homo sapiens
Description: SANGER: Inhibition of human D-247MG cell growth in a cell viability assay.

[64] = tested on: NB17; experiment: cells; conditions: Homo sapiens
Description: SANGER: Inhibition of human NB17 cell growth in a cell viability assay.

[65] = tested on: NB7; experiment: cells; conditions: Homo sapiens
Description: SANGER: Inhibition of human NB7 cell growth in a cell viability assay.

SMILES: N#C/C(=C1/Nc2ccccc2S1)c1ccnc(NCCc2cccnc2)n1
- IC50 [1]: > 8000 nM
- IC50 [2]: 2080 nM
- IC50 [3]: > 8000 nM
- IC50 [4]: > 8000 nM
- IC50 [5]: > 8000 nM
- IC50 [6]: > 8000 nM
- IC50 [7]: > 8000 nM
- IC50 [8]: 3470 nM
- IC50 [9]: 793 nM
- IC50 [10]: > 8000 nM
- IC50 [11]: 815 nM
- IC50 [12]: > 8000 nM
- IC50 [13]: 5970 nM
- IC50 [14]: > 8000 nM
- IC50 [15]: > 8000 nM
- IC50 [16]: > 8000 nM
- IC50 [17]: > 8000 nM
- IC50 [18]: > 8000 nM
- IC50 [19]: 3290 nM
- IC50 [20]: > 8000 nM
- IC50 [21]: > 8000 nM
- IC50 [22]: > 8000 nM
- IC50 [23]: > 8000 nM
- IC50 [24]: > 8000 nM
- IC50 [25]: > 8000 nM
- IC50 [26]: > 8000 nM
- IC50 [27]: 672 nM
- IC50 [28]: > 8000 nM
- IC50 [29]: > 8000 nM
- IC50 [30]: > 8000 nM
- IC50 [31]: > 8000 nM
- IC50 [32]: > 8000 nM
- IC50 [33]: > 8000 nM
- IC50 [34]: > 8000 nM
- IC50 [35]: > 8000 nM
- IC50 [36]: > 8000 nM
- IC50 [37]: > 8000 nM
- IC50 [38]: > 8000 nM
- IC50 [39]: > 8000 nM
- IC50 [40]: > 8000 nM
- IC50 [41]: 3040 nM
- IC50 [42]: > 8000 nM
- IC50 [43]: 4870 nM
- IC50 [44]: > 8000 nM
- IC50 [45]: 2160 nM
- IC50 [46]: > 8000 nM
- IC50 [47]: 5240 nM
- IC50 [48]: > 8000 nM
- IC50 [49]: > 8000 nM
- IC50 [50]: > 8000 nM
- IC50 [51]: > 8000 nM
- IC50 [52]: > 8000 nM
- IC50 [53]: 1860 nM
- IC50 [54]: > 8000 nM
- IC50 [55]: > 8000 nM
- IC50 [56]: > 8000 nM
- IC50 [57]: 2220 nM
- IC50 [58]: > 8000 nM
- IC50 [59]: > 8000 nM
- IC50 [60]: 2980 nM
- IC50 [61]: > 8000 nM
- IC50 [62]: > 8000 nM

SMILES: Cc1n[nH]c2ccc(-c3cncc(OC[C@@H](N)Cc4c[nH]c5ccccc45)c3)cc12 [A-443654]
- IC50 [63]: 974 nM
- IC50 [1]: 546 nM
- IC50 [15]: 181 nM
- IC50 [16]: 158 nM
- IC50 [20]: > 1020 nM
- IC50 [64]: 112 nM
- IC50 [65]: > 1020 nM
- IC50 [21]: 234 nM
- IC50 [31]: > 1020 nM
- IC50 [36]: > 1020 nM
- IC50 [37]: 184 nM
- IC50 [38]: 380 nM
- IC50 [39]: 620 nM
- IC50 [49]: 393 nM
- IC50 [57]: 59.1 nM
- IC50 [58]: > 1020 nM
- IC50 [60]: > 1020 nM

SMILES: Cc1nc(Nc2ncc(C(=O)Nc3c(C)cccc3Cl)s2)cc(N2CCN(CCO)CC2)n1 [DASATINIB]
- IC50 [63]: > 1280 nM
- IC50 [1]: > 1280 nM
- IC50 [15]: > 1280 nM
- IC50 [16]: > 1280 nM
- IC50 [20]: > 1280 nM
- IC50 [64]: > 1280 nM
- IC50 [65]: > 1280 nM
- IC50 [21]: > 1280 nM
- IC50 [31]: > 1280 nM
- IC50 [36]: > 1280 nM
- IC50 [37]: > 1280 nM
- IC50 [38]: > 1280 nM
- IC50 [39]: > 1280 nM
- IC50 [49]: > 1280 nM
- IC50 [57]: 5.89 nM
- IC50 [58]: > 1280 nM
- IC50 [60]: > 1280 nM

SMILES: CCn1c(-c2nonc2N)nc2cnc(Oc3cccc(NC(=O)c4ccc(OCCN5CCOCC5)cc4)c3)cc21 [GSK-269962A]
- IC50 [63]: 628 nM
- IC50 [1]: > 2500 nM
- IC50 [15]: > 2500 nM
- IC50 [16]: 1150 nM
- IC50 [20]: > 2500 nM
- IC50 [64]: > 2500 nM
- IC50 [65]: > 2500 nM
- IC50 [21]: > 2500 nM
- IC50 [31]: > 2500 nM
- IC50 [36]: > 2500 nM
- IC50 [37]: > 2500 nM
- IC50 [38]: > 2500 nM
- IC50 [39]: > 2500 nM
- IC50 [49]: > 2500 nM
- IC50 [57]: > 2500 nM
- IC50 [58]: > 2500 nM
- IC50 [60]: > 2500 nM

SMILES: Cc1[nH]c(/C=C2\C(=O)Nc3ccc(S(=O)(=O)Cc4c(Cl)cccc4Cl)cc32)c(C)c1C(=O)N1CCC[C@@H]1CN1CCCC1 [PHA-665752]
- IC50 [63]: > 2000 nM
- IC50 [1]: > 2000 nM
- IC50 [15]: > 2000 nM
- IC50 [16]: > 2000 nM
- IC50 [20]: > 2000 nM
- IC50 [64]: > 2000 nM
- IC50 [65]: > 2000 nM
- IC50 [21]: > 2000 nM
- IC50 [31]: > 2000 nM
- IC50 [36]: > 2000 nM
- IC50 [37]: > 2000 nM
- IC50 [38]: > 2000 nM
- IC50 [39]: > 2000 nM
- IC50 [49]: > 2000 nM
- IC50 [57]: > 2000 nM
- IC50 [58]: > 2000 nM
- IC50 [60]: > 2000 nM
